Activity calls are given as the source filed them. No cut-off for these calls is given here.
Assays:
[1] = target: Human immunodeficiency virus type 1 reverse transcriptase (Human immunodeficiency virus 1, UniProt Q72547); test: Inhibition of recombinant wild type HIV1 reverse transcriptase assessed as decrease in biotin-dUTP incorporation using DIG-labeled dUTP/biotin-labeled dUTP and dTTP as template and viral nucleotides after 1 hr by ELISA
[2] = Cytotoxicity against human MT4 cells assessed as decrease in cell viability after 5 days by MTT assay; assay type: cell-based
[3] = tested on: Human immunodeficiency virus 2; test: Antiviral activity against HIV2 ROD infected in human MT4 cells assessed as inhibition of virus-induced cytopathic effect after 5 days by MTT assay; assay type: functional, organism-based; settings: ISOLATE ROD
[4] = tested on: Human immunodeficiency virus 1; test: Antiviral activity against wild type HIV1 3B infected in human MT4 cells assessed as inhibition of virus-induced cytopathic effect after 5 days by MTT assay; assay type: functional, organism-based; settings: Human immunodeficiency virus 1, 3B, MT4, 120 h
[5] = Selectivity index, ratio of CC50 for human MT4 cells to EC50 for wild type HIV1 3B; assay type: toxicity; settings: read-out: Ratio CC50/EC50
[6] = tested on: Human immunodeficiency virus 1; test: Antiviral activity against HIV1 harboring reverse transcriptase Y181C mutant infected in human MT4 cells assessed as inhibition of viral replication after 5 days by MTT assay; assay type: functional, organism-based; settings: Human immunodeficiency virus 1, MT4, 120 h
[7] = tested on: Human immunodeficiency virus 1; test: Potency index, ratio of etravirine EC50 to compound EC50 for HIV1 harboring reverse transcriptase L100I mutant infected in human MT4 cells; assay type: functional
[8] = tested on: Human immunodeficiency virus 1; test: Antiviral activity against HIV1 harboring reverse transcriptase F227L/V106A double mutant infected in human MT4 cells assessed as inhibition of viral replication after 5 days by MTT assay; assay type: functional, organism-based; settings: Human immunodeficiency virus 1, MT4, 120 h
[9] = tested on: Human immunodeficiency virus 1; test: Potency index, ratio of etravirine EC50 to compound EC50 for HIV1 harboring reverse transcriptase K103N mutant infected in human MT4 cells; assay type: functional
[10] = tested on: Human immunodeficiency virus 1; test: Potency index, ratio of etravirine EC50 to compound EC50 for HIV1 harboring reverse transcriptase E138K mutant infected in human MT4 cells; assay type: functional
[11] = tested on: Human immunodeficiency virus 1; test: Potency index, ratio of etravirine EC50 to compound EC50 for HIV1 harboring reverse transcriptase Y188L mutant infected in human MT4 cells; assay type: functional
[12] = tested on: Human immunodeficiency virus 1; test: Potency index, ratio of etravirine EC50 to compound EC50 for wild type HIV1 3B infected in human MT4 cells; assay type: functional
[13] = tested on: Human immunodeficiency virus 1; test: Antiviral activity against HIV1 harboring reverse transcriptase L100I mutant infected in human MT4 cells assessed as inhibition of viral replication after 5 days by MTT assay; assay type: functional, organism-based; settings: Human immunodeficiency virus 1, MT4, 120 h
[14] = tested on: Human immunodeficiency virus 1; test: Antiviral activity against HIV1 RES056 harboring reverse transcriptase K103N/Y181C double mutant infected in human MT4 cells assessed as inhibition of viral replication after 5 days by MTT assay; assay type: functional, organism-based; settings: Human immunodeficiency virus 1, RES056, MT4, 120 h
[15] = tested on: Human immunodeficiency virus 1; test: Antiviral activity against HIV1 harboring reverse transcriptase K103N mutant infected in human MT4 cells assessed as inhibition of viral replication after 5 days by MTT assay; assay type: functional, organism-based; settings: Human immunodeficiency virus 1, MT4, 120 h
[16] = tested on: Human immunodeficiency virus 1; test: Antiviral activity against HIV1 harboring reverse transcriptase E138K mutant infected in human MT4 cells assessed as inhibition of viral replication after 5 days by MTT assay; assay type: functional, organism-based; settings: for EC50: Human immunodeficiency virus 1, MT4, 120 h
[17] = tested on: Human immunodeficiency virus 1; test: Antiviral activity against HIV1 harboring reverse transcriptase Y188L mutant infected in human MT4 cells assessed as inhibition of viral replication after 5 days by MTT assay; assay type: functional, organism-based
[18] = tested on: Human immunodeficiency virus 1; test: Potency index, ratio of etravirine EC50 to compound EC50 for HIV1 harboring reverse transcriptase Y181C mutant infected in human MT4 cells; assay type: functional
[19] = tested on: Human immunodeficiency virus 1; test: Fold resistance, ratio of EC50 for HIV1 harboring reverse transcriptase K103N mutant infected in human MT4 cells to EC50 for wild type HIV1 3B infected in human MT4 cells; assay type: functional

Row | Structure (SMILES) | IC50 [1] | CC50 at 120 h [2] | inhibition [3] | EC50 [4] | selectivity ratio [5] | EC50 [15] | EC50 [16] | other results
1 | COC(=O)CS(=O)(=O)c1cnc(Nc2ccc(C#N)cc2)nc1Oc1c(C)cc(C#N)cc1C | 13 to 863 nM | 5.1 to 149 µM | inactive | 68.8 nM | 152 to 15400 |  |  | 
2 | Cc1cc(C#N)cc(C)c1Oc1nc(Nc2ccc(C#N)cc2)ncc1SCC(=O)NCCCN1CCOCC1 | 84 to 86 nM | 27.2 µM | inactive | 2.6 nM | 10000 | 1.4 nM | 6 nM | EC50 [6]: 11.6 nM; Ratio EC50 [7]: 1.5 - 3; EC50 [8]: > 100 nM; Ratio EC50 [9]: 1.5 - 3; Ratio EC50 [10]: 1.5 - 3; Ratio EC50 [11]: 1.5 - 3; Ratio EC50 [12]: 1.5; EC50 [13]: 6.5 nM; EC50 [14]: > 100 nM; EC50 ([17]; Human immunodeficiency virus 1, MT4, 120 h): 16.2 nM; Ratio EC50 [18]: 1.5 - 3
3 | Cc1cn([C@H]2C[C@H](N=[N+]=[N-])[C@@H](CO)O2)c(=O)[nH]c1=O [ZIDOVUDINE] |  |  |  |  |  |  | 38.6 nM | EC50 [6]: 14.1 nM; EC50 [13]: 8.3 nM
4 | Cc1cc(C#N)cc(C)c1Oc1nc(Nc2ccc(C#N)cc2)ncc1SCC(=O)NCCN1CCN(C(=O)OC(C)(C)C)CC1 | 13 to 863 nM | 5.1 to 149 µM | inactive | 32.6 nM | 152 to 15400 | 1.4 to 44.9 nM | 6 to 157 nM | Ratio EC50 [19]: 0.4 - 1.9
5 | Cc1cc(C#N)cc(C)c1Oc1nc(Nc2ccc(C#N)cc2)ncc1SCC(=O)NCc1ccc(O)cc1 | 13 to 863 nM | 5.1 to 149 µM | inactive | < 10 nM | 152 to 15400 | 1.4 to 8.3 nM | 6 to 34.7 nM | 
6 | Cc1cc(C#N)cc(C)c1Oc1nc(Nc2ccc(C#N)cc2)ncc1SCC(=O)C(=O)O | 13 to 863 nM | 5.1 to 149 µM | inactive | 2.4 to 216 nM | 152 to 15400 |  |  | 
7 | Cc1cc(C#N)cc(C)c1Oc1nc(Nc2ccc(C#N)cc2)ncc1SCC(=O)N1CCN(C(=O)OC(C)(C)C)CC1 | 13 to 863 nM | 5.1 to 149 µM | inactive | 88.5 nM | 152 to 15400 |  |  | 
8 | COC(=O)CCS(=O)(=O)c1cnc(Nc2ccc(C#N)cc2)nc1Oc1c(C)cc(C#N)cc1C | 13 to 863 nM | 5.1 to 149 µM | inactive | 1560 nM | 9 |  |  | 
9 | C=CCNC(=O)CSc1cnc(Nc2ccc(C#N)cc2)nc1Oc1c(C)cc(C#N)cc1C | 13 to 863 nM | 5.1 to 149 µM | inactive | 2.4 to 3.8 nM | 152 to 15400 | 1.4 to 8.3 nM | 6 to 34.7 nM | Ratio EC50 [9]: 1.3 - 2.3
10 | Cc1cc(C#N)cc(C)c1Oc1nc(Nc2ccc(C#N)cc2)ncc1SCC(=O)NCC1CC1 | 13 to 863 nM | 5.1 to 149 µM | inactive | 3.8 nM | 152 to 15400 |  |  | 
11 | Cc1cc(C#N)cc(C)c1Oc1nc(Nc2ccc(C#N)cc2)ncc1SCC(=O)Nc1ccc(S(C)(=O)=O)cc1 | 13 to 863 nM | 5.1 to 149 µM | inactive | < 10 nM | 152 to 15400 | 1.4 to 8.3 nM | 6 to 34.7 nM | 
12 | Cc1cc(C#N)cc(C)c1Oc1nc(Nc2ccc(C#N)cc2)ncc1SCC(=O)NC1CCN(C(=O)OC(C)(C)C)CC1 | 13 to 863 nM | 5.1 to 149 µM | inactive | < 10 nM | 152 to 15400 | 1.4 to 44.9 nM | 6 to 157 nM | Ratio EC50 [19]: 0.4 - 1.9
14 | Cc1cc(C#N)cc(C)c1Oc1nc(Nc2ccc(C#N)cc2)ncc1SCC(=O)NCCN1CCOCC1 | 13 to 863 nM | 5.1 to 149 µM | inactive | 2.6 to 6.2 nM | 152 to 15400 | 1.4 to 8.3 nM | 6 to 34.7 nM | Ratio EC50 [9]: 1.3 - 2.3
15 | Cc1ccnc2c1NC(=O)c1cccnc1N2C1CC1 |  |  |  |  |  |  |  | inhibition [16]: Active
16 | COC(=O)CCSc1cnc(Nc2ccc(C#N)cc2)nc1Oc1c(C)cc(C#N)cc1C | 13 to 863 nM | 5.1 to 149 µM | inactive | 60.2 nM | 152 to 15400 |  |  | 
17 | Cc1cc(C#N)cc(C)c1Oc1nc(Nc2ccc(C#N)cc2)ncc1SCC(=O)N1CC[C@H](NC(=O)OC(C)(C)C)C1 | 13 to 863 nM | 5.1 to 149 µM | inactive | 33.9 nM | 152 to 15400 |  |  | 
18 | COCCNC(=O)CSc1cnc(Nc2ccc(C#N)cc2)nc1Oc1c(C)cc(C#N)cc1C | 26 nM | 5.1 to 149 µM | inactive | 3.8 nM | 152 to 15400 | 1.4 to 8.3 nM | 6 to 34.7 nM | EC50 [8]: > 100 nM; Ratio EC50 [9]: 1.3 - 2.3; EC50 [14]: > 100 nM; inhibition [17]: Active
19 | Cc1cc(C#N)cc(C)c1Oc1nc(Nc2ccc(C#N)cc2)ncc1SCC(=O)N1CCSCC1 | 13 to 863 nM | 5.1 to 149 µM | inactive | 38.3 nM | 152 to 15400 | 1.4 to 44.9 nM | 6 to 157 nM | Ratio EC50 [19]: 0.4 - 1.9
20 | O=C1Nc2ccc(Cl)cc2[C@@](C#CC2CC2)(C(F)(F)F)O1 [EFAVIRENZ] |  |  |  |  |  | 81 nM |  | 
21 | C#CCNC(=O)CSc1cnc(Nc2ccc(C#N)cc2)nc1Oc1c(C)cc(C#N)cc1C | 23 nM | 5.1 to 149 µM | inactive | 2.4 nM | 152 to 15400 | 1.4 to 8.3 nM | 6 to 34.7 nM | EC50 [6]: 11.1 to 13.8 nM; EC50 [8]: > 100 nM; Ratio EC50 [9]: 1.3 - 2.3; Ratio EC50 [12]: 1.6; EC50 [13]: 7.7 nM; EC50 [14]: > 100 nM; inhibition [17]: Active
22 | COC(=O)CSc1cnc(Nc2ccc(C#N)cc2)nc1Oc1c(C)cc(C#N)cc1C | 13 to 863 nM | 5.1 to 149 µM | inactive | 65.9 nM | 152 to 15400 |  |  | 
23 | Cc1cc(C#N)cc(C)c1Oc1nc(Nc2ccc(C#N)cc2)ncc1SCC(=O)NCC1CCCO1 (stereo unspecified) | 13 to 863 nM | 5.1 to 149 µM | inactive | < 10 nM | 152 to 15400 | 1.4 to 8.3 nM | 6 to 34.7 nM | 
24 | Cc1cc(C#N)cc(C)c1Oc1nc(Nc2ccc(C#N)cc2)ncc1SCC(=O)NC1CC1 | 21 nM | 5.1 to 149 µM | inactive | 2.4 nM | 152 to 15400 | 1.4 to 8.3 nM | 6 to 34.7 nM | EC50 [6]: 11.1 to 13.8 nM; EC50 [8]: > 100 nM; Ratio EC50 [9]: 1.3 - 2.3; Ratio EC50 [12]: 1.6; EC50 [14]: > 100 nM; inhibition [17]: Active
25 | Cc1cc(C#N)cc(C)c1Oc1nc(Nc2ccc(C#N)cc2)ncc1SCC(N)=O | 13 to 863 nM | 5.1 to 149 µM | inactive | 2.4 to 216 nM | 152 to 15400 | 1.4 to 44.9 nM | 6 to 34.7 nM | Ratio EC50 [19]: 0.4 - 1.9
